The values that follow come from BindingDB's records for patent US12338251 (Teligene US, 2025).

The target of this series is Cytochrome P450 3A4 (Homo sapiens, UniProt P08684). As to the kind of experiment: CYP Inhibition Assay. An excerpt:
The final concentrations of DMSO and acetonitrile were equal to or less than 0.1%.

Each structure is given as a SMILES string.

Cytochrome P450 3A4, sequence (P08684 whole entry): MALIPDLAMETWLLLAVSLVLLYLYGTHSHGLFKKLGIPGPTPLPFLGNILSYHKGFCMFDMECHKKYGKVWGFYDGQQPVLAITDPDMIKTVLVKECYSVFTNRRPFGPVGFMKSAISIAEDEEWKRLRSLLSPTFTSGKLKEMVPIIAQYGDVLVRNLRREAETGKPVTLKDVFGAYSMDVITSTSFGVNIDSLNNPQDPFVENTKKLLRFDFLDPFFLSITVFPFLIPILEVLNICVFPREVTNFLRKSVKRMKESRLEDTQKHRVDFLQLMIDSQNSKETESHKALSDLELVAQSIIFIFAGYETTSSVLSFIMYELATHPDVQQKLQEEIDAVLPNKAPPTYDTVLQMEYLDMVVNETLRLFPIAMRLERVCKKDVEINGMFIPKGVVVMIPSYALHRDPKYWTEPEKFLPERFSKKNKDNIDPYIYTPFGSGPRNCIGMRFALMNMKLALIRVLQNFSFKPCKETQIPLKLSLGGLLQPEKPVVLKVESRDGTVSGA

What is called IC50 is the concentration that inhibits the measured activity by half. For the compound `CC(=O)CCC(=O)Nc1ncc2cc1O[C@H](C)c1cc(F)ccc1C(=O)N(C)Cc1nn(C)c(C#N)c1-2` [US12338251, Compound 3], the IC50 was found to be 279 µM.
